Source: the supplement of paper PMC4862054

tested on: BT-474; assay: normalised response (% of control), CellTiter-Glo; higher = more viable cells (100 = DMSO, 0 = benzethonium chloride kill control); details: incubation time: 72 h
Outline: (§1)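 Each entry is the normalised signal at a single concentration within a series. The series comprised 5 concentrations in 10-fold steps over a compound-specific 10,000-fold range, placed in 384-well plates into which breast cancer cell lines were seeded as 20 µl suspension and incubated 72 h. CellTox Green (485/520 nm) fluorescence and then CellTiter-Glo luminescence were read, with signals normalised per plate to 0.1 % DMSO (100) and a positive kill control (0).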

Row | Compound | normalised response [%]
1 | CC(C)(C#N)c1cc(Cn2cncn2)cc(C(C)(C)C#N)c1 [Anastrozole] (1000 nM) | 104
2 | COc1ccccc1S(=O)(=O)Nc1ccc2c(c1)CN(C)C(=O)N2 [PFI-1] (1000 nM) | 89.8

tested on: BT-549; assay: as above; details: incubation time: 72 h
Outline: as §1

Row | Compound | normalised response [%]
3 | Cn1c(=O)n(-c2ccc(C(C)(C)C#N)cc2)c2c3cc(-c4cnc5ccccc5c4)ccc3ncc21 [Dactolisib] (100 nM) | 23.8
4 | Cn1cncc1[C@@](N)(c1ccc(Cl)cc1)c1ccc2c(c1)c(-c1cccc(Cl)c1)cc(=O)n2C [Tipifarnib] (1000 nM) | 75.1
5 | CC(C)(C#N)c1cc(Cn2cncn2)cc(C(C)(C)C#N)c1 [Anastrozole] (1000 nM) | 99.2
6 | COc1ccccc1S(=O)(=O)Nc1ccc2c(c1)CN(C)C(=O)N2 [PFI-1] (1000 nM) | 76.9

tested on: CAL-120; assay: as above; details: incubation time: 72 h
Outline: as §1

Row | Compound | normalised response [%]
7 | Cn1c(=O)n(-c2ccc(C(C)(C)C#N)cc2)c2c3cc(-c4cnc5ccccc5c4)ccc3ncc21 [Dactolisib] (100 nM) | 29.1
8 | Cn1cncc1[C@@](N)(c1ccc(Cl)cc1)c1ccc2c(c1)c(-c1cccc(Cl)c1)cc(=O)n2C [Tipifarnib] (1000 nM) | 79.4
9 | CC(C)(C#N)c1cc(Cn2cncn2)cc(C(C)(C)C#N)c1 [Anastrozole] (1000 nM) | 96.7
10 | COc1ccccc1S(=O)(=O)Nc1ccc2c(c1)CN(C)C(=O)N2 [PFI-1] (1000 nM) | 91.3

tested on: CAL-148; assay: as above; details: incubation time: 72 h
Outline: as §1

Row | Compound | normalised response [%]
11 | Cn1c(=O)n(-c2ccc(C(C)(C)C#N)cc2)c2c3cc(-c4cnc5ccccc5c4)ccc3ncc21 [Dactolisib] (100 nM) | 30.4
12 | Cn1cncc1[C@@](N)(c1ccc(Cl)cc1)c1ccc2c(c1)c(-c1cccc(Cl)c1)cc(=O)n2C [Tipifarnib] (1000 nM) | 66.8
13 | CC(C)(C#N)c1cc(Cn2cncn2)cc(C(C)(C)C#N)c1 [Anastrozole] (1000 nM) | 93.3
14 | COc1ccccc1S(=O)(=O)Nc1ccc2c(c1)CN(C)C(=O)N2 [PFI-1] (1000 nM) | 107

tested on: CAL-51; assay: as above; details: incubation time: 72 h
Outline: as §1

Row | Compound | normalised response [%]
15 | Cn1c(=O)n(-c2ccc(C(C)(C)C#N)cc2)c2c3cc(-c4cnc5ccccc5c4)ccc3ncc21 [Dactolisib] (100 nM) | 31.7
16 | Cn1cncc1[C@@](N)(c1ccc(Cl)cc1)c1ccc2c(c1)c(-c1cccc(Cl)c1)cc(=O)n2C [Tipifarnib] (1000 nM) | 52.2
17 | CC(C)(C#N)c1cc(Cn2cncn2)cc(C(C)(C)C#N)c1 [Anastrozole] (1000 nM) | 122
18 | COc1ccccc1S(=O)(=O)Nc1ccc2c(c1)CN(C)C(=O)N2 [PFI-1] (1000 nM) | 87.7

tested on: CAL-85-1; assay: as above; details: incubation time: 72 h
Outline: as §1

Row | Compound | normalised response [%]
19 | Cn1c(=O)n(-c2ccc(C(C)(C)C#N)cc2)c2c3cc(-c4cnc5ccccc5c4)ccc3ncc21 [Dactolisib] (100 nM) | 39.9
20 | Cn1cncc1[C@@](N)(c1ccc(Cl)cc1)c1ccc2c(c1)c(-c1cccc(Cl)c1)cc(=O)n2C [Tipifarnib] (1000 nM) | 110
21 | CC(C)(C#N)c1cc(Cn2cncn2)cc(C(C)(C)C#N)c1 [Anastrozole] (1000 nM) | 103
22 | COc1ccccc1S(=O)(=O)Nc1ccc2c(c1)CN(C)C(=O)N2 [PFI-1] (1000 nM) | 87

tested on: DU-4475; assay: as above; details: incubation time: 72 h
Outline: as §1

Row | Compound | normalised response [%]
23 | Cn1c(=O)n(-c2ccc(C(C)(C)C#N)cc2)c2c3cc(-c4cnc5ccccc5c4)ccc3ncc21 [Dactolisib] (100 nM) | 41
24 | Cn1cncc1[C@@](N)(c1ccc(Cl)cc1)c1ccc2c(c1)c(-c1cccc(Cl)c1)cc(=O)n2C [Tipifarnib] (1000 nM) | 66.4
25 | CC(C)(C#N)c1cc(Cn2cncn2)cc(C(C)(C)C#N)c1 [Anastrozole] (1000 nM) | 98.2
26 | COc1ccccc1S(=O)(=O)Nc1ccc2c(c1)CN(C)C(=O)N2 [PFI-1] (1000 nM) | 97.7

tested on: HCC1143; assay: as above; details: incubation time: 72 h
Outline: as §1

Row | Compound | normalised response [%]
27 | Cn1c(=O)n(-c2ccc(C(C)(C)C#N)cc2)c2c3cc(-c4cnc5ccccc5c4)ccc3ncc21 [Dactolisib] (100 nM) | 45.5
28 | Cn1cncc1[C@@](N)(c1ccc(Cl)cc1)c1ccc2c(c1)c(-c1cccc(Cl)c1)cc(=O)n2C [Tipifarnib] (1000 nM) | 80.5
29 | CC(C)(C#N)c1cc(Cn2cncn2)cc(C(C)(C)C#N)c1 [Anastrozole] (1000 nM) | 101
30 | COc1ccccc1S(=O)(=O)Nc1ccc2c(c1)CN(C)C(=O)N2 [PFI-1] (1000 nM) | 94.1

tested on: HCC1599; assay: as above; details: incubation time: 72 h
Outline: as §1

Row | Compound | normalised response [%]
31 | Cn1c(=O)n(-c2ccc(C(C)(C)C#N)cc2)c2c3cc(-c4cnc5ccccc5c4)ccc3ncc21 [Dactolisib] (100 nM) | 80.4
32 | Cn1cncc1[C@@](N)(c1ccc(Cl)cc1)c1ccc2c(c1)c(-c1cccc(Cl)c1)cc(=O)n2C [Tipifarnib] (1000 nM) | 111
33 | CC(C)(C#N)c1cc(Cn2cncn2)cc(C(C)(C)C#N)c1 [Anastrozole] (1000 nM) | 123
34 | COc1ccccc1S(=O)(=O)Nc1ccc2c(c1)CN(C)C(=O)N2 [PFI-1] (1000 nM) | 86.7

tested on: HCC1937; assay: as above; details: incubation time: 72 h
Outline: as §1

Row | Compound | normalised response [%]
35 | Cn1c(=O)n(-c2ccc(C(C)(C)C#N)cc2)c2c3cc(-c4cnc5ccccc5c4)ccc3ncc21 [Dactolisib] (100 nM) | 57.3
36 | Cn1cncc1[C@@](N)(c1ccc(Cl)cc1)c1ccc2c(c1)c(-c1cccc(Cl)c1)cc(=O)n2C [Tipifarnib] (1000 nM) | 74.5
37 | CC(C)(C#N)c1cc(Cn2cncn2)cc(C(C)(C)C#N)c1 [Anastrozole] (1000 nM) | 94.5
38 | COc1ccccc1S(=O)(=O)Nc1ccc2c(c1)CN(C)C(=O)N2 [PFI-1] (1000 nM) | 90.9

tested on: HDQ-P1; assay: as above; details: incubation time: 72 h
Outline: as §1

Row | Compound | normalised response [%]
39 | Cn1c(=O)n(-c2ccc(C(C)(C)C#N)cc2)c2c3cc(-c4cnc5ccccc5c4)ccc3ncc21 [Dactolisib] (100 nM) | 52.7
40 | Cn1cncc1[C@@](N)(c1ccc(Cl)cc1)c1ccc2c(c1)c(-c1cccc(Cl)c1)cc(=O)n2C [Tipifarnib] (1000 nM) | 76.4
41 | CC(C)(C#N)c1cc(Cn2cncn2)cc(C(C)(C)C#N)c1 [Anastrozole] (1000 nM) | 96.5
42 | COc1ccccc1S(=O)(=O)Nc1ccc2c(c1)CN(C)C(=O)N2 [PFI-1] (1000 nM) | 91.9

tested on: Hs578T; assay: as above; details: incubation time: 72 h
Outline: as §1

Row | Compound | normalised response [%]
43 | Cn1c(=O)n(-c2ccc(C(C)(C)C#N)cc2)c2c3cc(-c4cnc5ccccc5c4)ccc3ncc21 [Dactolisib] (100 nM) | 35.2
44 | Cn1cncc1[C@@](N)(c1ccc(Cl)cc1)c1ccc2c(c1)c(-c1cccc(Cl)c1)cc(=O)n2C [Tipifarnib] (1000 nM) | 80.6
45 | CC(C)(C#N)c1cc(Cn2cncn2)cc(C(C)(C)C#N)c1 [Anastrozole] (1000 nM) | 103
46 | COc1ccccc1S(=O)(=O)Nc1ccc2c(c1)CN(C)C(=O)N2 [PFI-1] (1000 nM) | 85

tested on: MCF-10A; assay: as above; details: incubation time: 72 h
Outline: as §1

Row | Compound | normalised response [%]
47 | Cn1c(=O)n(-c2ccc(C(C)(C)C#N)cc2)c2c3cc(-c4cnc5ccccc5c4)ccc3ncc21 [Dactolisib] (100 nM) | 45.2
48 | Cn1cncc1[C@@](N)(c1ccc(Cl)cc1)c1ccc2c(c1)c(-c1cccc(Cl)c1)cc(=O)n2C [Tipifarnib] (1000 nM) | 86.9
49 | CC(C)(C#N)c1cc(Cn2cncn2)cc(C(C)(C)C#N)c1 [Anastrozole] (1000 nM) | 105
50 | COc1ccccc1S(=O)(=O)Nc1ccc2c(c1)CN(C)C(=O)N2 [PFI-1] (1000 nM) | 98.6

tested on: MDA-MB-231; assay: as above; details: incubation time: 72 h
Outline: as §1

Row | Compound | normalised response [%]
51 | Cn1c(=O)n(-c2ccc(C(C)(C)C#N)cc2)c2c3cc(-c4cnc5ccccc5c4)ccc3ncc21 [Dactolisib] (100 nM) | 50.4
52 | Cn1cncc1[C@@](N)(c1ccc(Cl)cc1)c1ccc2c(c1)c(-c1cccc(Cl)c1)cc(=O)n2C [Tipifarnib] (1000 nM) | 90.6
53 | CC(C)(C#N)c1cc(Cn2cncn2)cc(C(C)(C)C#N)c1 [Anastrozole] (1000 nM) | 106
54 | COc1ccccc1S(=O)(=O)Nc1ccc2c(c1)CN(C)C(=O)N2 [PFI-1] (1000 nM) | 89.2

tested on: MDA-MB-436; assay: as above; details: incubation time: 72 h
Outline: as §1

Row | Compound | normalised response [%]
55 | Cn1c(=O)n(-c2ccc(C(C)(C)C#N)cc2)c2c3cc(-c4cnc5ccccc5c4)ccc3ncc21 [Dactolisib] (100 nM) | 62
56 | Cn1cncc1[C@@](N)(c1ccc(Cl)cc1)c1ccc2c(c1)c(-c1cccc(Cl)c1)cc(=O)n2C [Tipifarnib] (1000 nM) | 65.1
57 | CC(C)(C#N)c1cc(Cn2cncn2)cc(C(C)(C)C#N)c1 [Anastrozole] (1000 nM) | 100
58 | COc1ccccc1S(=O)(=O)Nc1ccc2c(c1)CN(C)C(=O)N2 [PFI-1] (1000 nM) | 93.9

tested on: MDA-MB-453; assay: as above; details: incubation time: 72 h
Outline: as §1

Row | Compound | normalised response [%]
59 | Cn1c(=O)n(-c2ccc(C(C)(C)C#N)cc2)c2c3cc(-c4cnc5ccccc5c4)ccc3ncc21 [Dactolisib] (100 nM) | 38.8
60 | Cn1cncc1[C@@](N)(c1ccc(Cl)cc1)c1ccc2c(c1)c(-c1cccc(Cl)c1)cc(=O)n2C [Tipifarnib] (1000 nM) | 73.8
61 | CC(C)(C#N)c1cc(Cn2cncn2)cc(C(C)(C)C#N)c1 [Anastrozole] (1000 nM) | 96.9
62 | COc1ccccc1S(=O)(=O)Nc1ccc2c(c1)CN(C)C(=O)N2 [PFI-1] (1000 nM) | 91.1

tested on: MDA-MB-468; assay: as above; details: incubation time: 72 h
Outline: as §1

Row | Compound | normalised response [%]
63 | Cn1c(=O)n(-c2ccc(C(C)(C)C#N)cc2)c2c3cc(-c4cnc5ccccc5c4)ccc3ncc21 [Dactolisib] (100 nM) | 39
64 | Cn1cncc1[C@@](N)(c1ccc(Cl)cc1)c1ccc2c(c1)c(-c1cccc(Cl)c1)cc(=O)n2C [Tipifarnib] (1000 nM) | 74.9
65 | CC(C)(C#N)c1cc(Cn2cncn2)cc(C(C)(C)C#N)c1 [Anastrozole] (1000 nM) | 106
66 | COc1ccccc1S(=O)(=O)Nc1ccc2c(c1)CN(C)C(=O)N2 [PFI-1] (1000 nM) | 95

tested on: MFM-223; assay: as above; details: incubation time: 72 h
Outline: as §1

Row | Compound | normalised response [%]
67 | Cn1c(=O)n(-c2ccc(C(C)(C)C#N)cc2)c2c3cc(-c4cnc5ccccc5c4)ccc3ncc21 [Dactolisib] (100 nM) | 39.1
68 | Cn1cncc1[C@@](N)(c1ccc(Cl)cc1)c1ccc2c(c1)c(-c1cccc(Cl)c1)cc(=O)n2C [Tipifarnib] (1000 nM) | 73.8
69 | CC(C)(C#N)c1cc(Cn2cncn2)cc(C(C)(C)C#N)c1 [Anastrozole] (1000 nM) | 105
70 | COc1ccccc1S(=O)(=O)Nc1ccc2c(c1)CN(C)C(=O)N2 [PFI-1] (1000 nM) | 97.8

tested on: SK-BR-3; assay: as above; details: incubation time: 72 h
Outline: as §1

Row | Compound | normalised response [%]
71 | Cn1c(=O)n(-c2ccc(C(C)(C)C#N)cc2)c2c3cc(-c4cnc5ccccc5c4)ccc3ncc21 [Dactolisib] (100 nM) | 30
72 | Cn1cncc1[C@@](N)(c1ccc(Cl)cc1)c1ccc2c(c1)c(-c1cccc(Cl)c1)cc(=O)n2C [Tipifarnib] (1000 nM) | 59.4
73 | CC(C)(C#N)c1cc(Cn2cncn2)cc(C(C)(C)C#N)c1 [Anastrozole] (1000 nM) | 108
74 | COc1ccccc1S(=O)(=O)Nc1ccc2c(c1)CN(C)C(=O)N2 [PFI-1] (1000 nM) | 103
